Holding throughout (format): cell-based
Assay [1] addresses T1, human TLR7 (Homo sapiens, UniProt Q9NYK1).
T1 construct: host or cells: HEK-Blue cells (HEK293-derived reporter line)
T1 sequence (Q9NYK1 27-1049): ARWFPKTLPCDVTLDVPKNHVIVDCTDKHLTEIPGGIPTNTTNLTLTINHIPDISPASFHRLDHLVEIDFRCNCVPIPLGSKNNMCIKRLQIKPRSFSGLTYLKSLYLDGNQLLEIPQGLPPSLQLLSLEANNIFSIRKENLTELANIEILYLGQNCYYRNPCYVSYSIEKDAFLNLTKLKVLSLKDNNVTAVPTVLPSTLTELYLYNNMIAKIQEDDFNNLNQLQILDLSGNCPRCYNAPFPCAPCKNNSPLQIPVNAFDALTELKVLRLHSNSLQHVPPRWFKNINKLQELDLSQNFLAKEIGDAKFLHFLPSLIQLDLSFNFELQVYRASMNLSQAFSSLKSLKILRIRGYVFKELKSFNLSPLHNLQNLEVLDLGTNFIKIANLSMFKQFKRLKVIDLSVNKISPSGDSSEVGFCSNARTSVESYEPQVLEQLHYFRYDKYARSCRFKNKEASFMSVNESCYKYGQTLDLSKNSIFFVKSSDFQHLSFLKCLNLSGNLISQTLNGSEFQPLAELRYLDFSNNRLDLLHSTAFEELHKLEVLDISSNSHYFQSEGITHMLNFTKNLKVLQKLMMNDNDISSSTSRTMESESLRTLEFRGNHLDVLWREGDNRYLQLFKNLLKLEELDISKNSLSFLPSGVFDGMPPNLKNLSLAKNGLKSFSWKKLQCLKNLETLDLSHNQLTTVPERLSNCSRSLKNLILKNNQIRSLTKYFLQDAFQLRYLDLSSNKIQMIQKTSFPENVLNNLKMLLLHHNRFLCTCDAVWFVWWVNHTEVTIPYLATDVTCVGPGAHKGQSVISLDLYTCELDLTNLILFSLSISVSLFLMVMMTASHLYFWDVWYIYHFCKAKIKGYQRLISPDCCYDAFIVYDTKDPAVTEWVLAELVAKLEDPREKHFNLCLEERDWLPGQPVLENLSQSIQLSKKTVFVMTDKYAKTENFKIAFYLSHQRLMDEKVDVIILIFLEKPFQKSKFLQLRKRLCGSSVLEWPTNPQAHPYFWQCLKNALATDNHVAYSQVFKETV
Kind of assay: TLR7 inhibition reporter assay (HEK-Blue cells, SEAP reporter, gardiquimod stimulation). The following applies: HEK-Blue cells overexpressing human TLR7, SEAP reporter, gardiquimod 7.5 μM. The essentials:
(§1)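 HEK-Blue cells overexpressing human TLR7, TLR8 or TLR9 (NF-κB/AP-1-driven SEAP) pre-treated 30 min at room temperature with compound (0.05 nM–50 μM), then stimulated with gardiquimod 7.5 μM (TLR7), R848 15.9 μM (TLR8) or ODN2006 5 nM (TLR9). SEAP read colorimetrically after 22 h at 37 °C; % inhibition calculated.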

For assay [2], the target named is T2, human TLR9 (Homo sapiens, UniProt Q9NR96).
T2 construct: host or cells: HEK-Blue cells (HEK293-derived reporter line)
T2 sequence (Q9NR96 26-1032): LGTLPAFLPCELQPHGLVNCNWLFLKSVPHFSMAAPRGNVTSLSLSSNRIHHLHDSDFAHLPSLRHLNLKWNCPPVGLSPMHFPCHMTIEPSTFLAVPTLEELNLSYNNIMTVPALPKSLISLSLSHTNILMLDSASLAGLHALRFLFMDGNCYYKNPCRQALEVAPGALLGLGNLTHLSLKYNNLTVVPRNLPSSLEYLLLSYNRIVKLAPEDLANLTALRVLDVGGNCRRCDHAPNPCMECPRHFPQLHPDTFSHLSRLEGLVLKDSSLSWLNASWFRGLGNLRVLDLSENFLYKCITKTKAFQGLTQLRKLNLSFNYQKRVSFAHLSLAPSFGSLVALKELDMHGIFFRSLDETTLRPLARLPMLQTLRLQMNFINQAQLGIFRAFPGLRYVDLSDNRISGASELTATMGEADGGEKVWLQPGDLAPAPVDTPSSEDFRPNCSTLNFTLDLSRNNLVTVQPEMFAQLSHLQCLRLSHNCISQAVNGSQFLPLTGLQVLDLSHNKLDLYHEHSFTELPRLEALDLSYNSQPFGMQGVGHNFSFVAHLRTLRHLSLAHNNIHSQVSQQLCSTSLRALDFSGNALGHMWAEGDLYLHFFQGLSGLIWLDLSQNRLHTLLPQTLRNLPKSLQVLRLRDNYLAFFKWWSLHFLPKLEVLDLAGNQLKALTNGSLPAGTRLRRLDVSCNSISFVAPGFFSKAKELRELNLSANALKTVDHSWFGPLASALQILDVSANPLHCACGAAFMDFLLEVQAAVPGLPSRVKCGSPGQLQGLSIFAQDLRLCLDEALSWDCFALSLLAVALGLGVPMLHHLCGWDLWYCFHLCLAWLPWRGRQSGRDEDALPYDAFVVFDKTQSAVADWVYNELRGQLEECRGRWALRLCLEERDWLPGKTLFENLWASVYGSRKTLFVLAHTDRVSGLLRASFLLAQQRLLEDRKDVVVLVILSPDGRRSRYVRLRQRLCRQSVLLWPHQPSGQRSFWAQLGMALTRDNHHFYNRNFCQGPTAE
Kind of assay: TLR9 inhibition reporter assay (HEK-Blue cells, SEAP reporter, ODN2006 stimulation). The following applies: HEK-Blue cells overexpressing human TLR9, SEAP reporter, ODN2006 5 nM. In outline:
as §1

Assay [3] deals with T3, human TLR8 (Homo sapiens, UniProt Q9NR97).
T3 construct: host or cells: HEK-Blue cells (HEK293-derived reporter line)
T3 sequence (Q9NR97 27-1041): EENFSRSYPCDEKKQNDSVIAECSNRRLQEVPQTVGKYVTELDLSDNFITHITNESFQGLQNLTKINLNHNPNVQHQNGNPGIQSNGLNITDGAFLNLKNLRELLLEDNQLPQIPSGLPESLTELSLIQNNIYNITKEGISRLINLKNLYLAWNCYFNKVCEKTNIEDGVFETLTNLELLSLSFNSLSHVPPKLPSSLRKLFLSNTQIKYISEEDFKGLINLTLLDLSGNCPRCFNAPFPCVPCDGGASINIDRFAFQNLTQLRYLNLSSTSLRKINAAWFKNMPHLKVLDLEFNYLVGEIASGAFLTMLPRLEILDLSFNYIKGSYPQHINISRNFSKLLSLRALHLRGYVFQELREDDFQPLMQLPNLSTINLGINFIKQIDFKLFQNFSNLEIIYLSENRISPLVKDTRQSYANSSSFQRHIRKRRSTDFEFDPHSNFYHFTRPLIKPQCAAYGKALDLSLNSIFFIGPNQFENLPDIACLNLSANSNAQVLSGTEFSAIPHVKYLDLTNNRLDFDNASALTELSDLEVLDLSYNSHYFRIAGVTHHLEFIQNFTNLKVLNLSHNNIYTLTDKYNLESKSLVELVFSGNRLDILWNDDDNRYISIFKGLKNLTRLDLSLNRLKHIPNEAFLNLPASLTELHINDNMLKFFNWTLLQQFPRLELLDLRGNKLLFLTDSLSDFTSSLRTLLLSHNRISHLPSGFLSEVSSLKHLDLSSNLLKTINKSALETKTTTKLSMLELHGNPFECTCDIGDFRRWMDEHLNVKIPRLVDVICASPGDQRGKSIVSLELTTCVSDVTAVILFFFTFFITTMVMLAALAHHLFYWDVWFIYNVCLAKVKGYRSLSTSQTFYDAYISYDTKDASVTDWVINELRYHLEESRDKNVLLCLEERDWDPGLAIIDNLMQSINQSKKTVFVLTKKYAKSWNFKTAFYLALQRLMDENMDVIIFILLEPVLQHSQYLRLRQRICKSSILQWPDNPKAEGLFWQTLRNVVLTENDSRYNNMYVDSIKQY
Kind of assay: TLR8 inhibition reporter assay (HEK-Blue cells, SEAP reporter, R848 stimulation). The conditions noted are these: HEK-Blue cells overexpressing human TLR8, SEAP reporter, R848 15.9 μM. The essentials:
as §1

`CC(C)c1c(-c2ccnc3[nH]ncc23)[nH]c2cc(C(F)(F)F)c(C3CCN(CC4CCN(C(C)C)C4)CC3)cc12` (stereo not drawn) [Example 854, 4-(3-isopropyl-5-(1-((1-isopropylpyrrolidin-3-yl)methyl)piperidin-4-yl)-6-(trifluoromethyl)-1H-indol-2-yl)-1H-pyrazolo[3,4-b]pyridine]: the values for the IC50 in assay [1], in assay [2] and in assay [3] were under 100 nM, 100 to 1000 nM and 100 to 1000 nM, respectively.
Regarding `CCc1c(-c2ccnc3[nH]ncc23)[nH]c2ccc(C3CCN(Cc4csnn4)CC3)cc12` [Example 930, 4-((4-(3-ethyl-2-(1H-pyrazolo[3,4-b]pyridin-4-yl)-1H-indol-5-yl)piperidin-1-yl)methyl)-1,2,3-thiadiazole], the values for the IC50 in assay [1], in assay [2] and in assay [3] were 100 to 1000 nM, 1000 to 50000 nM and under 100 nM, respectively.
The like results for `Cc1cc2nnnn2cc1-c1[nH]c2ccc(C3CCN(C4CCOCC4)CC3)cc2c1C(C)C` [Example 699, 6-(3-isopropyl-5-(1-(tetrahydro-2H-pyran-4-yl)piperidin-4-yl)-1H-indol-2-yl)-7-methyltetrazolo[1,5-a]pyridine] were, in that order, under 100 nM, 1000 to 50000 nM and under 100 nM.
`CC(C)c1c(-c2ccnc3[nH]ncc23)[nH]c2ccc(C3CCN(C(=O)CNCC(C)(C)N4CCOCC4)CC3)cc12` [Example 580, 1-(4-(3-isopropyl-2-(1H-pyrazolo[3,4-b]pyridin-4-yl)-1H-indol-5-yl)piperidin-1-yl)-2-((2-methyl-2-morpholinopropyl)amino)ethan-1-one]: the concentration for half-maximal inhibition (IC50) in assay [1] is under 100 nM; in assay [2] it was 1000 to 50000 nM; in assay [3], under 100 nM.
Take `Cc1cc(-c2[nH]c3ccc(C4CCN(CCS(C)(=O)=O)CC4)cc3c2C(C)C)cn2nnnc12` [Example 789, 6-(3-isopropyl-5-(1-(2-(methylsulfonyl)ethyl)piperidin-4-yl)-1H-indol-2-yl)-8-methyltetrazolo[1,5-a]pyridine]: the figures for the IC50 in assay [1], in assay [2] and in assay [3] were under 100 nM, 1000 to 50000 nM and under 100 nM, respectively.
In the case of `CC(C)c1c(-c2cccn3ncnc23)[nH]c2ccc(C3CCN(CC(C)(C)O)CC3)cc12` [Example 760, 1-(4-(2-([1,2,4]triazolo[1,5-a]pyridin-8-yl)-3-isopropyl-1H-indol-5-yl)piperidin-1-yl)-2-methylpropan-2-ol], the IC50 in assay [1] is 100 to 1000 nM; in assay [2], 1000 to 50000 nM; in assay [3], under 100 nM.
In the same order, the values of `CNC(=O)CN1CCC(c2ccc3[nH]c(-c4nn5ncnc5c(C)c4C)c(C(C)C)c3c2)CC1` [Example 279, 2-(4-(2-(7,8-dimethyl-[1,2,4]triazolo[1,5-b]pyridazin-6-yl)-3-isopropyl-1H-indol-5-yl)piperidin-1-yl)-N-methylacetamide] are under 100 nM, 1000 to 50000 nM and under 100 nM.
With `Cc1cc2[nH]c(-c3ccnc4[nH]ncc34)c(C(C)C)c2cc1C1CCN(C2CCN(C(C)C)CC2)CC1` [Example 826, 4-(3-isopropyl-5-(1′-isopropyl-[1,4′-bipiperidin]-4-yl)-6-methyl-1H-indol-2-yl)-1H-pyrazolo[3,4-b]pyridine], the figures for the IC50 in assay [1], in assay [2] and in assay [3] were under 100 nM, 100 to 1000 nM and under 100 nM, respectively.
Take `Cc1nc2c(C)cc(-c3[nH]c4ccc(C5CCN(C(=O)CN(C)C)CC5)cc4c3C(C)C)cn2c1C` [Example 527, 2-(dimethylamino)-1-(4-(3-isopropyl-2-(2,3,8-trimethylimidazo[1,2-a]pyridin-6-yl)-1H-indol-5-yl)piperidin-1-yl)ethan-1-one]: the figures for the 50% inhibitory concentration (IC50) in assay [1], in assay [2] and in assay [3] were under 100 nM, 100 to 1000 nM and 100 to 1000 nM, respectively.
Take `CCc1c(-c2ccnc3[nH]ncc23)[nH]c2ccc(C3CCN(CCNC)CC3)cc12` [Example 654, 2-(4-(3-ethyl-2-(1H-pyrazolo[3,4-b]pyridin-4-yl)-1H-indol-5-yl)piperidin-1-yl)-N-methylethan-1-amine]: the IC50 in assay [1] is under 100 nM; in assay [2], 100 to 1000 nM; in assay [3], under 100 nM.

The values above are taken from patent US11739098B2 (BRISTOL-MYERS SQUIBB COMPANY, priority 2017, dated 2023).
